IC50 data for two compounds are collected here from PMC8775867, “The Systems of Naringenin with Solubilizers Expand Its Capability to Prevent Neurodegenerative Diseases” (International Journal of Molecular Sciences, 2022).

Values after ≈ are worked out from the molar mass of the structure shown.

This test deals with T1, tyrosinase.
T1 construct: gene PPO3
Description: L-DOPA oxidation, absorbance […] nm. It counts as biochemical. Particulars: L-DOPA substrate, phosphate buffer pH 6.8, room temperature.

For `O=C(O)CCCCCCCC(=O)O` [azelaic acid], the IC50 (usually the midpoint of a concentration-inhibition curve) is 5883 ± 23 µg/mL (≈ 31.3 mM).
As to `O=C1C[C@@H](c2ccc(O)cc2)Oc2cc(O)cc(O)c21` [naringenin], the IC50 (NAR in DMSO) turned out to be 4615 ± 89 µg/mL (≈ 17 mM).
